Measured values taken from US10676496B2, “Method for producing flavonoid inclusion compound” (TAIYO KAGAKU CO., LTD., priority 2017, dated 2020).
Like-named read-outs stand apart in the source and are kept apart here.

How the values were obtained:
[1] = cited from earlier work
[2] = Evaluation of storage stability (green tea); format: physicochemical; conditions: 0.03% as hesperetin-7-glucoside; for presence or absence of the precipitates, 4° C.: 7 days at 4° C.; for presence or absence of the precipitates, 25° C.: 7 days at 25° C.
Protocol: Evaluation of Storage Stability (Green Tea)
Hesperidin (manufactured by Hamari Chemicals., Ltd.), hesperetin-7-glucoside (prepared in the following), a flavonoid inclusion compound of Example 22 or a composition of flavonoid glycosides of Example 40 was added to a commercially available green tea (“Oi Ocha,” manufactured by ITO EN, LTD.) so as to have a concentration calculated as 0.03% in terms of hesperetin-7-glucoside conversion. The mixture was allowed to stand for 7 days at 4° C. and 25° C., and the presence or absence of the precipitates was then visually observed.
Seven grams of Hesperidin (manufactured by Hamari Chemicals., Ltd.) was added to […] of an aqueous solution, and the solution was adjusted to 70° C. and a pH of 4.5. Thereafter, 0.5 g of naringinase (Amano Enzyme Inc. 155 u/g) was added thereto while stirring, and the solution was recovered and dried, to give 4.2 g of hesperetin-7-glucoside having a content of 96% or more. Identification as being hesperetin-7-glucoside and a content thereof were analyzed by NMR and HPLC in the same manner as mentioned above.

[3] = Evaluation of bioavailability; format: in vivo
Source text: Evaluation of Bioavailability
Nine-week-old Wister rats (male) were given with MF (Oriental Yeast Co., Ltd.) and bred for 7 days, and the rats were then subjected to fasting from the day before the administration of a test substance. Thereafter, 100 μmol/kg (calculated as IQC) of a dried product of Example 16 prepared in the evaluation of the effects of preventing flavor deterioration, a rutin suspension (Alps Pharmaceutical Ind., Co., Ltd., 100 μmol/kg (calculated as IQC)), 1,000 μmol/kg (calculated as HPT-7G) of dried product of Example 22 prepared in the evaluations of the effects of preventing flavor deterioration, and a hesperidin suspension (Hamari Chemicals., Ltd., 1,000 μmol/kg (calculated as HPT-7G)) were orally administered to the rats in a single dose (orally administered by gavage, n=2). Blood collection into heparinized tubes was carried out from tail veins of rats 30 minutes, 1 hour and 3 hours after the administration, and the blood was centrifuged to obtain plasma. In the drawn sera sample, the amounts of quercetin derivatives were measured according to a method by Makino et al (Biol. pharm. Bull., 32(12) 2034, 2009), and the amounts of hesperetin derivatives were measured according to a method by Yamada et al (Biosci. Biotechnol. Biochem, 70(6), 1386, 2006), and analysis was made by applying the sample to high-performance liquid chromatography (SHIMADZU) and using a photodiode array detector (SPD-M30A, SHIMADZU).

[4] = Evaluation of storage stability (lemon beverage); format: physicochemical; conditions: 0.3% as naringenin-7-glucoside; for presence or absence of the precipitates, 4° C.: 1 month at 4° C.; for presence or absence of the precipitates, 25° C.: 1 month at 25° C.
Protocol: Evaluation of Storage Stability (Lemon Beverage)
Naringin (manufactured by SIGMA), naringenin-7-glucoside (prepared hereinbelow) or a flavonoid inclusion compound-containing composition of Example 109 was added to a commercially available lemon beverage (C1000 Lemon Water, manufactured by HOUSE […] FOODS CORPORATION) so as to have a concentration calculated as 0.3% in terms of naringenin-7-glucoside conversion, the beverage was allowed to stand for 1 month at 4° C. or 25° C., and the presence or absence of the precipitates was then visually observed.
After the termination of the reaction according to Comparative Example 102, the precipitates that were previously allowed to stand at room temperature were recovered, washed with water, recrystallized and dried, to give 13 g of naringenin-7-glucoside having a content of 95% or more. The identity of the product with a reagent naringenin-7-glucoside (Wako) by HPLC and a content thereof were analyzed.

[5] = compared with rutin, hesperidin, or naringin having a rhamnoside structure

Structure (SMILES): COc1ccc(C2CC(=O)c3c(O)cc(OC4OC(CO)C(O)C(O)C4O)cc3O2)cc1O (stereo not drawn) [Hesperetin-7-Glucoside, hesperetin-7-glucoside]
- bioavailability in rats ([1]; rat, in vivo): higher
- presence or absence of the precipitates, 4° C. [2]: x (those in which the precipitates were observed were evaluated as x)
- presence or absence of the precipitates, 25° C. [2]: x (those in which the precipitates were observed were evaluated as x)

Structure (SMILES): COc1ccc([C@@H]2CC(=O)c3c(O)cc(O[C@@H]4O[C@H](CO[C@@H]5O[C@@H](C)[C@H](O)[C@@H](O)[C@H]5O)[C@@H](O)[C@H](O)[C@H]4O)cc3O2)cc1O [Hesperidin]
- AUC, hesperetin ([3]; rat plasma, single oral 1,000 μmol/kg (calculated as HPT-7G), 0 to 3 hours): 0.082 µM·h
- Hesperetin concentration ([3]; rat plasma, single oral 1,000 μmol/kg (calculated as HPT-7G), time of blood drawing 0): 0 µM
- Hesperetin concentration ([3]; rat plasma, single oral 1,000 μmol/kg (calculated as HPT-7G), time of blood drawing 0.5 (hours)): 0.003 µM
- Hesperetin concentration ([3]; rat plasma, single oral 1,000 μmol/kg (calculated as HPT-7G), time of blood drawing 1 (hour)): 0.064 µM
- Hesperetin concentration ([3]; rat plasma, single oral 1,000 μmol/kg (calculated as HPT-7G), time of blood drawing 3 (hours)): 0 µM
- presence or absence of the precipitates, 4° C. [2]: x (those in which the precipitates were observed were evaluated as x)
- presence or absence of the precipitates, 25° C. [2]: x (those in which the precipitates were observed were evaluated as x)

Structure (SMILES): O=c1c(O[C@@H]2O[C@H](CO)[C@@H](O)[C@H](O)[C@H]2O)c(-c2ccc(O)c(O)c2)oc2cc(O)cc(O)c12 [Isoquercitrin, isoquercitrin]
- bioavailability in rats [1, 5]: higher

Structure (SMILES): O=C1C[C@@H](c2ccc(O)cc2)Oc2cc(O[C@@H]3O[C@H](CO)[C@@H](O)[C@H](O)[C@H]3O)cc(O)c21 [Naringenin-7-glucoside, naringenin-7-glucoside]
- bioavailability in rats [1, 5]: higher
- presence or absence of the precipitates, 4° C. [4]: x (those in which the precipitates were observed were evaluated as x)
- presence or absence of the precipitates, 25° C. [4]: x (those in which the precipitates were observed were evaluated as x)

Structure (SMILES): C[C@@H]1O[C@@H](O[C@H]2[C@H](Oc3cc(O)c4c(c3)O[C@H](c3ccc(O)cc3)CC4=O)O[C@H](CO)[C@@H](O)[C@@H]2O)[C@H](O)[C@H](O)[C@H]1O [Naringin]
- presence or absence of the precipitates, 4° C. [4]: x (those in which the precipitates were observed were evaluated as x)
- presence or absence of the precipitates, 25° C. [4]: x (those in which the precipitates were observed were evaluated as x)

Structure (SMILES): C[C@@H]1O[C@@H](OC[C@H]2O[C@@H](Oc3c(-c4ccc(O)c(O)c4)oc4cc(O)cc(O)c4c3=O)[C@H](O)[C@@H](O)[C@@H]2O)[C@H](O)[C@H](O)[C@H]1O [Rutin Suspension, rutin]
- AUC, Total (quercetin and quercetin derivatives) ([3]; male, Wister, rat, in vivo, po, 100 umol/kg): 0.1 µM·h

Structure (SMILES): O=C1C[C@@H](c2ccc(O)cc2)Oc2cc(O)cc(O)c21 [naringenin]
- bioavailability in rats [1, 5]: higher
